Data taken from the METLIN SMRT retention time set (Domingo-Almenara et al. 2019).

assay: gradient 5% acetonitrile 3 min, to 50% in 2 min, to 85% in 15 min, held 3 min, 100 µL/min; conditions: column: Zorbax Extend-C18 2.1 x 50 mm; eluents: water / acetonitrile, 0.1% formic acid
How it was run: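 Using water and acetonitrile that each contained 0.1% formic acid, mixtures of ~100 pure standards were separated at 100 μL/min on a Zorbax Extend-C18 column (2.1 × 50 mm, 1.8 μm). The HPLC fed a quadrupole time-of-flight mass spectrometer working in positive and negative ionization mode, with dead and dwell volumes of 40 μL and 900 μL. Data were acquired over 3 months. Retention time was read from computationally picked adduct peaks after manual inspection of each.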

Going from `CCc1nc2c(c(=O)n1CC(=O)Nc1cc(C)ccc1OC)CN(Cc1ccccc1)CC2` to `CCN1CCN(c2cc(C)c3cc(NC(=S)NCc4ccccc4OC)ccc3n2)CC1`, the RP-LC retention time falls from 681 s to 605 s.

Going from `O=C(Cc1csc(NS(=O)(=O)c2ccc(Cl)cc2)n1)NCc1cccs1` to `CCC(=O)N1CCc2cc(C(=O)NCc3cccs3)ccc21`, the RP-LC retention time rises from 725 s to 743 s.

Compared with `CCc1nc(-c2csc(S(=O)(=O)N3CCCC(C(=O)Nc4ccc(C(C)C)cc4)C3)c2)no1` (stereo not drawn), `Cc1ccc(-c2noc(-c3ccccc3S(=O)(=O)N3CCC(C)CC3)n2)cc1` is higher in RP-LC retention time: 1210 s for the first, 1280 s for the second.

Compared with `O=C(Nc1ccc(OCC(=O)N2CCN(c3ncccn3)CC2)nc1)C1CC1`, `CCOC(=O)N1CCN(c2ncc(S(=O)(=O)c3ccc(C)cc3)c(N)n2)CC1` is higher in RP-LC retention time: 624 s for the first, 875 s for the second.

Going from `Cc1cc(-c2nnc(C3CCC3)o2)c(C)n1CC(=O)NCc1cccc(Cl)c1` to `COc1ccc(CCNC(=O)Cn2c(=O)n(CC3CCCO3)c(=O)c3ccccc32)cc1OC` (stereo not drawn), the RP-LC retention time falls from 897 s to 732 s.

First: CN(C(=O)c1ccc(-c2cccc([N+](=O)[O-])c2)o1)C1CCS(=O)(=O)C1 (stereo not drawn)
Second: COc1ccc(-n2nnc3c(SCc4cccc([N+](=O)[O-])c4)ncnc32)cc1
The RP-LC retention time of the first is lower: 726 s for the first, 1100 s for the second.

Going from `CCCC(=O)N(C)CC1CCOCC1` to `CN(CC1CCOC1)C(=O)c1cc(F)ccc1Cl` (stereo not drawn), the RP-LC retention time rises from 630 s to 704 s.

First: O=C(c1ccc(Cl)s1)N1CCN(c2nnc3ccccn23)CC1
Second: CC(C)Cn1c(=O)c(N2CCN(C(=O)C(C)C)CC2)nc2ccccc21
The RP-LC retention time of the first is lower: 675 s for the first, 1020 s for the second.

First: CCc1noc2nc(C)n(CC(=O)NCc3ccc(OC(C)C)cc3)c(=O)c12
Second: CCOc1ccc(CNC(=O)c2cnc(OC)nc2)cc1
The RP-LC retention time of the first is lower: 661 s for the first, 732 s for the second.

Going from `CCOc1ccc(-c2noc(Cc3nc(-c4ccccc4Cl)cs3)n2)cc1` to `Cc1ccc(-c2csc(Cc3nc(-c4ccc5c(c4)OCO5)no3)n2)cc1`, the RP-LC retention time falls from 1340 s to 1210 s.

First: COCCN1[C@@H]2CCN(Cc3ccc(C#N)cc3)C[C@@]2(C(=O)N2CCOCC2)CCS1(=O)=O
Second: COc1ccc(N2CCN(C(=O)CN3C(=O)NC4(CCCCC4)C3=O)CC2)cc1
The RP-LC retention time of the first is lower: 641 s for the first, 694 s for the second.

Going from `CC(C)NC(=O)C1CCC(=O)N1C1CCN(C(=O)C2CCCCC2)CC1` (stereo not drawn) to `O=C(N[C@@H]1CN(C(=O)C2CC2)CC[C@@H]1CO)C1CC1`, the RP-LC retention time falls from 591 s to 576 s.

First: O=C1NCCCn2cc(S(=O)(=O)Nc3ccc(Cl)cc3)cc21
Second: O=S(=O)(c1cccc(-c2cn3cc(Cl)ccc3n2)c1)N1CCCC1
The RP-LC retention time of the first is lower: 682 s for the first, 805 s for the second.

First: COc1ccc(C2C(=O)N(CCc3ccccc3)CC(=O)N2Cc2ccc3c(c2)OCO3)cc1 (stereo not drawn)
Second: COc1ccc(Cn2ccc3nc(C)c(C(=O)NCCc4c[nH]c5ccccc45)cc3c2=O)cc1
The RP-LC retention time of the first is higher: 933 s for the first, 807 s for the second.

Compared with `CCSc1nnc(-c2nn(C)c3c2CN(C(=O)c2ccccc2)CC3)n1C`, `O=C(c1cccc(Br)c1)N1CCc2nc(-c3ccc(F)cc3)ncc2C1` is higher in RP-LC retention time: 716 s for the first, 1010 s for the second.

First: CN(C)[C@@H]1CN(C(=O)CC2CCCCC2)CC[C@@H]1CO
Second: CCOCC(=O)N1CCC(N2CC(OCC3CC3)C23CCCCC3)CC1 (stereo not drawn)
The RP-LC retention time of the first is lower: 615 s for the first, 644 s for the second.

Compared with `Cc1cc(C)cc(C(=O)N2CCC3(CC2)NC(=O)c2cc(C)ccc2N3C)c1`, `Cc1ccc(C)c(NS(=O)(=O)c2cc(-c3[nH]ncc3C(=O)N3CCOCC3)oc2C)c1` is lower in RP-LC retention time: 852 s for the first, 701 s for the second.

Compared with `COc1ccc(OC)c(CNC(=O)CCC(=O)N2CCCn3nc(-c4cccn4C)cc32)c1`, `COc1ccc(C2C(=O)N(C3CCCCC3)CC(=O)N2Cc2cccs2)cc1OC` (stereo not drawn) is higher in RP-LC retention time: 755 s for the first, 882 s for the second.

Going from `COc1cc([C@@H]2c3cc4c(cc3[C@H](O)[C@@H](CO)[C@@H]2C(=O)Nc2ccc(C)cc2)OCO4)cc(OC)c1OC` to `COc1ccc(Nc2c(-c3ccc(O)c(OC)c3)nc3nc(C)cc(C)n23)cc1`, the RP-LC retention time falls from 763 s to 617 s.

Compared with `CCc1noc([C@@H]2CC(F)(F)CN2C(=O)CCc2c(C)noc2C)n1`, `CCOC(=O)N1CCN(C(=O)CSc2ccc(-c3sc(C)nc3C)nn2)CC1` is lower in RP-LC retention time: 775 s for the first, 632 s for the second.

First: CC(C)[C@H](NC(=O)OCc1ccccc1)C(=O)N[C@H](C=O)Cc1ccccc1
Second: CC(C)NCC(O)COc1ccccc1-n1cccc1 (stereo not drawn)
The RP-LC retention time of the first is higher: 773 s for the first, 701 s for the second.

Going from `CC1(C)CS(=O)(=O)N(c2cccc(C(=O)NCCc3c[nH]c4ccccc34)c2)C1=O` to `CC(C)Cn1cc(CCNC(=O)c2cccc(Br)c2)c2cccnc21`, the RP-LC retention time rises from 825 s to 922 s.

First: COC(=O)c1c(NCCc2cccs2)c2cccc(Cl)c2[nH]c1=O
Second: COC(=O)c1ccc2c(=O)n(-c3ccc(Cl)cc3)c(N3CCC(C(N)=O)CC3)nc2c1
The RP-LC retention time of the first is higher: 823 s for the first, 754 s for the second.

First: Cc1cc(C)cc(NC(=O)C(C)C2CCN(C(=O)Nc3ccc(F)cc3)CC2)c1 (stereo not drawn)
Second: O=C(Nc1ccc2c(c1)CN(C(=O)Nc1ccc3c(c1)OCCO3)CCO2)C1CC1
The RP-LC retention time of the first is higher: 917 s for the first, 717 s for the second.

First: Cc1cc(NC(=O)Cn2nc3c4sc(N(C)C)nc4ncn3c2=O)ccc1Br
Second: Cc1nc2c(sc3nc(-c4ccccc4)ccc32)c(=O)n1CC(=O)Nc1ccc(Cl)cc1
The RP-LC retention time of the first is lower: 778 s for the first, 1120 s for the second.

Going from `COCCNC(=O)C1COC2(CCCCC2)N1C(=O)c1cccc(C(F)(F)F)c1` (stereo not drawn) to `CC1(C(=O)NCc2ccc3c(c2)OCO3)CCN(C(=O)c2ccccc2C(F)(F)F)CC1`, the RP-LC retention time rises from 814 s to 822 s.

First: O=C(O)c1cccc(Nc2c(-c3cccc(Cl)c3)nc3cnccn23)c1
Second: Cc1ccc(Nc2c(-c3ccccc3)nc3ccccn23)cc1
The RP-LC retention time of the first is higher: 737 s for the first, 694 s for the second.

Going from `CN1C(=O)C(CC(=O)N2CCCCC2)Sc2ncccc21` (stereo not drawn) to `CN(C)c1ccc(N2C=C(C(=O)N3CCCCC3)S(=O)(=O)c3ccccc32)cc1`, the RP-LC retention time rises from 658 s to 898 s.

Compared with `CCS(=O)(=O)N1CC(=O)N(c2cccc(F)c2)C(C)(C(=O)NC2CCCCC2)C1` (stereo not drawn), `Cc1ccc(CNC(=O)C2(C)CN(S(C)(=O)=O)CC(=O)N2c2ccc(C)cc2C)cc1` (stereo not drawn) is higher in RP-LC retention time: 817 s for the first, 864 s for the second.

First: CCOc1nc2ccccc2nc1N1CCCC(C(=O)N2CCN(c3ccccc3)CC2)C1 (stereo not drawn)
Second: CN1C(=O)C2CCCCN2c2ccc(C(=O)N3CCN(c4ccc(Cl)cc4)CC3)cc21 (stereo not drawn)
The RP-LC retention time of the first is higher: 1280 s for the first, 1020 s for the second.

Going from `Cc1ccc(-n2ccc(=O)c(-c3nc(-c4ccccc4Cl)no3)n2)cc1` to `O=c1ccn(-c2ccc(Cl)cc2)nc1-c1nc(-c2ccccc2OCc2ccccc2)no1`, the RP-LC retention time falls from 958 s to 845 s.

Compared with `Cn1c(=O)sc2cc(S(=O)(=O)N3CCC(C(=O)NCc4ccccc4)CC3)ccc21`, `CCCNC(=O)C1CCN(Cc2cc3ccccc3n2Cc2ccccc2Cl)CC1` is lower in RP-LC retention time: 851 s for the first, 736 s for the second.

Going from `Cc1ccc2oc(-c3nnc(C(=O)NCCCN4CCN(C)CC4)o3)c(C)c2c1` to `COC(=O)N1CCN(CCNC(=O)Cc2ccc(SC(C)C)cc2)CC1`, the RP-LC retention time falls from 622 s to 584 s.

Going from `CCOC(=O)CCNC(=O)N1CCCCCCN(C)C(=O)CC1` to `NC(=O)c1c(NC(=O)C2CCCN(C(=O)c3cc(F)cc(F)c3)C2)sc2c1CCCC2` (stereo not drawn), the RP-LC retention time rises from 627 s to 1230 s.

Going from `COc1ccccc1CN1CC(F)(F)C[C@H]1COc1ccncc1` to `COc1ccccc1-c1nc(-c2cn(Cc3cccc(F)c3)nn2)no1`, the RP-LC retention time rises from 623 s to 936 s.

Compared with `CCOC(=O)c1cnc2nc(C)ccc2c1Nc1ccc(S(N)(=O)=O)cc1`, `Cc1ccc(S(=O)(=O)c2cnc(N3CCN(c4cc(C)ccc4C)CC3)nc2N)cc1` is higher in RP-LC retention time: 589 s for the first, 1310 s for the second.

Compared with `O=C(Cc1nnc(-c2ccncc2)o1)NCc1ccc(C(F)(F)F)cc1`, `CN(C)c1ccc(C(=O)Nc2cc(-c3ccccn3)no2)cc1` is higher in RP-LC retention time: 718 s for the first, 812 s for the second.

Compared with `Cc1cc(C(=O)N2CCCCC2)c2c(=O)n(Cc3nc(-c4ccccc4)oc3C)c(=O)n(C)c2n1`, `CCCN1CCN(c2cc(C(=O)O)c3cc(NS(=O)(=O)c4ccccc4)ccc3n2)CC1` is higher in RP-LC retention time: 1020 s for the first, 1110 s for the second.

Going from `CCCS(=O)(=O)c1nc2ccc(NS(C)(=O)=O)cc2s1` to `O=C(NCCc1cn2c(n1)SCC2)C(=O)Nc1ccc(F)cc1`, the RP-LC retention time falls from 755 s to 542 s.

Compared with `COc1ccccc1NC(=O)Nc1cccc(-c2ccc(N3CCOCC3)nn2)c1`, `Cc1cccc(NC(=O)c2cc(C)n3nccc3n2)c1` is higher in RP-LC retention time: 702 s for the first, 955 s for the second.

Compared with `O=C(Cc1csc(NC(=O)C2CCCC2)n1)NC1CCN(Cc2ccccc2)CC1`, `O=C(CSc1ccc(S(=O)(=O)C2CCCCC2)nn1)NCc1cc(F)cc(F)c1` is higher in RP-LC retention time: 569 s for the first, 833 s for the second.

Going from `COc1ccc(-c2cnc(SCC(=O)Nc3cc(C)on3)n2Cc2ccco2)cc1` to `CCn1cc(C(=O)Nc2ccc(C)cc2C)c2cccnc21`, the RP-LC retention time rises from 705 s to 962 s.

First: CCOc1ccccc1NC(=O)Cn1c(=O)n(CC(N)=O)c(=O)c2oc3ccccc3c21
Second: Cc1nc(NC(=O)c2ccc(Cl)cc2)nc2cc3c(cc12)OCO3
The RP-LC retention time of the first is lower: 704 s for the first, 750 s for the second.

First: COc1ccc2nc(SCC(=O)N3CCC(C(N)=O)CC3)nc(C)c2c1
Second: CC(=O)c1ccc(NC(=O)c2cnn3c4c(cnc23)CCCCCC4)cc1
The RP-LC retention time of the first is lower: 626 s for the first, 1060 s for the second.
